Experimental data: a melting point compilation (Tetko et al.; mined from patent text by program, amines drawn as free bases though some values may be those of a salt)

melting point [°C]	Structure (SMILES)
130 to 135	O=C(CSC1c2ccccc2COc2ccc(OCc3ccc4ccc(Cl)cc4n3)cc21)NS(=O)(=O)c1ccccc1 (stereo not drawn)
88 to 91	O=C(Cn1c(-c2cccnc2)ncc(NC(=O)OCc2ccccc2)c1=O)NC(Cc1ccccc1)C(=O)C(F)(F)F (stereo not drawn)
129 to 131	CCc1c(-c2ccc(O)cc2)c2c(COCCCCCCN3CCCCC3)cc3c(O)ccc1n32
259 to 260	CCCc1nc2sc3c(NCc4cccnc4)ncnc3c2c2c1COC(C)(C)C2
120 to 124	COC(=O)CCc1cc2cc(Cl)ccc2n1S(=O)(=O)c1cc(OC)ccc1OC
158 to 161	Fc1cc(CC2(Cc3ccnc(F)c3)c3cc(I)ccc3-c3ncccc32)ccn1
86 to 87	Cc1cc(C2=C(Cl)CCN(C(=O)c3ccccc3)C2)no1
140 to 144	Fc1ccc(-c2nc(-c3ccccn3)cs2)cc1
108 to 110	Cc1noc(C)c1Cn1cc(NC(=O)[C@@H](C)c2ccccc2)cn1
153 to 155	CCCN(C(=O)COc1c(C)cccc1C)C1CCc2c(ccc(O)c2O)C1 (stereo not drawn)
52 to 54	O=C1CCc2cc(OCC(F)(F)C(F)(F)F)ccc21
188 to 189	CN(C)C(=O)CC(=O)c1ccc(C(=O)CC(=O)N(C)C)cc1
127 to 128	CCc1cc2c(s1)SCCc1cc(=O)n(-c3ccc(Cl)cc3)nc1-2
173	O=[N+]([O-])c1c(Cl)cc(Cl)cc1-c1n[nH]cc1Cl
215 to 217	COc1cc2ccc(-c3ccccc3N)cc2cc1OC
193 to 195	COc1cc(C(=O)c2c[nH]c(-c3ccc(Cl)cc3)n2)cc(OC)c1OC
49 to 51	CCCn1nc(C(C)C)c(C(=O)OCc2ccccc2C(=O)c2ccccc2)c1Cc1ccc(-c2ccccc2S(=O)(=O)NC(C)(C)C)c(F)c1
96 to 98	CCN1c2ncc(CS(=O)(=O)c3ccccc3)cc2C(=O)N(C)c2ccc(Cl)nc21
108 to 110	N#CC1(c2cccs2)C2CC3CC(C2)CC1C3 (stereo not drawn)
205 to 207	O=S(=O)(Nc1ccc2c(OCc3coc(-c4ccc(Br)cc4)n3)cccc2c1)C(F)(F)F
135 to 141	CCCc1nc2c(N)nc3cc(-c4ccccc4)ccc3c2n1CC(C)(C)NS(C)(=O)=O
192	CS(=O)(=O)COC(=O)c1oc(-c2ccccc2)cc(=O)c1Br

melting point [°C]	Structure (SMILES)
78 to 81	NC(=O)c1cc(OCCCCNCc2ccccc2)ccc1O
180 to 181	COc1ccc(S(=O)(=O)N2CCc3cccc(-c4cccc(F)c4)c32)cc1
239 to 240	NC(=O)c1c(Cl)c(-c2ccccc2)n2c1CN(S(=O)(=O)c1ccccc1F)CC2
150 to 152	CN(C)C(=O)N[C@H]1CC[C@H](CCN2CCN(c3cccc4c3CCC4)CC2)CC1
91.5 to 92.5	CCOC(=O)c1cc(NC(C)=O)ccc1OC(C)=O
106	Cn1nc(-c2ccccc2C=O)c2ccccc21
275 to 285	O=C(c1ccc(-c2ccc(Cl)cc2)cc1)C(O)O
192	NC(=S)NCc1cn(-c2ccc(N3CCOCC3)c(F)c2)nn1
186 to 188	O=C(Nc1ccc2nc(CN3CCCCC3)ccc2c1)c1ccc(-c2ccccc2)cc1
> 300	COc1cc2cc3c(=O)c(C#N)c[nH]c3cc2cc1OCc1ccccc1
104 to 106	Nc1ncccc1C(=O)NCC1CCN(CC2COc3ccccc3O2)CC1 (stereo not drawn)
320 to 323	Cn1c(=O)c(-c2ccc(Cl)cc2Cl)cc2c3cc(-c4ccno4)ccc3[nH]c21
248 to 249	O=C(O)c1cc2c(F)ccc(Cl)c2s1
282 to 284	O=C1C=CN=CC1[N+](=O)[O-] (stereo not drawn)
148 to 151	CNCCc1[nH]c2ccccc2c1-c1ccccc1
93.5 to 94.5	COc1ccc2c(c1)OCC(c1ccc(F)cc1)C2c1ccc(OCCN2CCCCC2)cc1 (stereo not drawn)
134 to 136	N#Cc1cc(-c2c3ccccc3cc3sc4ccccc4c23)cc(C#N)c1OCC(=O)O
199 to 201	COc1ccccc1N1CCN([C@@H]2Cc3cccc(O)c3C[C@H]2O)CC1 (relative stereo)
82.5 to 84	COc1cc2cc(OS(=O)(=O)C(F)(F)F)cnc2cc1OC
200 to 202	COc1c(C2CCN(CCCCNC(=O)c3ccc(-c4ccc(NS(C)(=O)=O)cc4)cc3)CC2)ccc2c1CCCC2
120 to 125	COC(=O)COc1c2ccccc2cc2c1c1c(C(N)=O)cccc1n2Cc1ccccc1
192 to 194	COCCc1nc2c(N)nc3ccc(OCc4ccccc4)cc3c2n1C

melting point [°C]	Structure (SMILES)
209 to 211	Cc1coc(NC(=O)C(c2ccccc2)c2ccccc2)n1
68.5 to 69	COc1cc(C2=C(C(C)(C)C)C(C)(C)CO2)cc2oc(-c3ccccc3)nc12
75 to 78	Cc1onc(C(=O)c2ccccc2Cl)c1N
139 to 140	Cn1c(Oc2cccc(C(F)(F)F)c2)nc2c(-c3cccc(C(=O)NCCO)c3)cccc21
246	COc1ccc(C(=O)Nc2ccc(F)cc2)c2c1oc1ccccc12
184 to 186	CN(c1ccc(S(C)(=O)=O)cc1)S(=O)(=O)c1cccc(NC(=O)c2ccc(S(C)=O)cc2)c1 (stereo not drawn)
199	OC(c1ccc(Cl)cc1)(c1cccnc1)c1ccc2noc(-c3cccc(Cl)c3)c2c1 (stereo not drawn)
232 to 235	Cn1cc(C2=C(c3c4n(c5ccccc35)CC3(CCN(C(=O)OC(C)(C)C)C3)C4)C(=O)NC2=O)c2ccccc21 (stereo not drawn)
183 to 188	CCOC(=O)C#CC(C)(C)OC(=O)Nc1ccc(-c2ncn(-c3ccc(OC(F)(F)F)cc3)n2)cc1
122	CC(=O)OC1CSC(Oc2ccc(-c3cccnc3)cc2F)C(OC(C)=O)C1OC(C)=O (stereo not drawn)
150	CNC(=O)c1cccc(NC(=O)Cc2cccc(OCc3ccccc3)c2)c1
101 to 103	CC(C)C(=O)c1ccc(-c2ccc3c(c2)CC[C@H]2N(C)C(=O)CC[C@]32C)cc1
151	CC(C)(C)OC(=O)NCC(N)c1c[nH]c2ccc(Br)cc12 (stereo not drawn)
166 to 167	COn1c(C#N)c(C#N)c(Br)c1-c1ccc(Cl)cc1
225 to 227	COc1ccc(-c2nc(C)[nH]c3cc(-c4ccccc4)nc2-3)cc1
108 to 110	O=C(O)C1CSC(c2ccccc2OCCCCO[N+](=O)[O-])N1 (stereo not drawn)
121 to 123	CC(C)(C(=O)O)C(=O)O
114 to 115	Cc1nc(-c2cn(Cc3ccc(F)cc3)nn2)sc1C(=O)NCc1ccccc1
270	O=c1[nH]cc(-c2ccnc(Cl)c2)n1-c1ccc(F)cc1
114 to 116	CCC(C)(C)Nc1c(N(Cc2ccc(Cl)cc2Cl)C(C)=O)c(=O)c1=O
225 to 226	CCCOc1ccc(S(=O)(=O)N(C)C)cc1-c1ccc(C#N)c(=O)[nH]1
190 to 200	CCOP(=O)(OCC)c1cc2cc(S(=O)(=O)Cl)c(Cl)cc2[nH]c1=O

melting point [°C]	Structure (SMILES)
96 to 105	CCOP(C)(=O)CC(CC(C)C)NS(=O)(=O)c1ccc(C)cc1 (stereo not drawn)
235	O=C(O)c1cc(=O)cc(-c2ccc(OCc3ccccc3)cc2)o1
152 to 154	O=C(Nc1cccc(Oc2cccc(C(=O)O)c2)c1)NC12CC3CC(CC(C3)C1)C2
211 to 213	Nc1nc(Cl)c(-c2ccc(Cl)cc2Cl)c(Cl)n1
56 to 57	CCCCCCCCC(C)C(=O)NCl (stereo not drawn)
> 260	O=C1CCC(N2C(=O)c3cccc(CNC(=O)c4cc(Cl)cnc4Cl)c3C2=O)C(=O)N1 (stereo not drawn)
196	CC(C)(C)C1=C(c2cc3cc(O)ccc3s2)OCC1(C)C
246 to 248	CS(=O)(=O)c1ccc(-c2c(-c3ccccc3F)[nH]c3ccc(Cl)cc23)cc1
144	COc1ccccc1-c1oc2cccc3c2c1C=CC3=O
57 to 60	NCCNC(=O)c1ccc(F)cc1
194 to 195	c1ccc(C2CNc3c(cnc4ccccc34)O2)cc1 (stereo not drawn)
100 to 103	O=C(O)C(CC1CCCCC1)c1ccc(OCc2ccccn2)cc1 (stereo not drawn)
291 to 292	C=C(C)C1CCC2(C(=O)O)CCC3(C)C(CCC4C5(C)CCC(O)C(C)(C)C5CCC43C)C12 (stereo not drawn)
160 to 164	Cc1c(-c2ccc3cn[nH]c3c2)cc(Nc2ccc(N3CCOCC3)cn2)c2nccn12
160 to 162	Nc1ccc(SCCn2cnnc2)cc1
115 to 117	COc1cc(F)cc(-c2nn(Cc3oc4ccccc4c(=O)c3-c3cccc(F)c3)c3ncnc(N)c23)c1
143 to 146	O=C(O)CP(=O)(c1ccccc1)c1ccccc1
82	Cc1ccc(CCC(=O)O)cc1C
128 to 130	O=C(c1cccnc1Cl)N1CCN=C1Cc1ccccc1Cl
113 to 115	CCCC(=O)c1cnc2c(O)cccc2c1Nc1ccccc1C
185 to 186	COc1cc2[nH]c(S(=O)Cc3nccc(N4CCOCC4)c3F)nc2cc1C (stereo not drawn)
164 to 167	O=C1C(=O)c2ccccc2C2=C1SCC1(CCN(CC(O)COc3ccc4ccccc4c3)CC1)O2 (stereo not drawn)

Structure (SMILES)	melting point [°C]
CCCCCCCCCCCCCCCCCCOc1cc(OCCC[PH](=O)OCC)cc(N(CC(=O)O)CC(=O)O)c1 (stereo not drawn)	105 to 108
O=C1C2CCN(CC2)C1CN1CCCCC1 (stereo not drawn)	34 to 37
Cn1cc(Br)nc(Nc2ccc3c(c2)CCNC3)c1=O	170 to 171
COC1CC2(C)C(CCC3C4CCC(C(=O)CBr)C4(C)CC(=O)C32)CC1O (stereo not drawn)	185 to 188
CC(Br)c1cc2ccccc2s1 (stereo not drawn)	53
O=[PH](c1ccc(Cl)cc1)c1ccc(Cl)cc1	124
COC(=O)CCc1cc(C(C)(C)C)c(OP(Cl)c2ccccc2)c(C(C)(C)C)c1 (stereo not drawn)	86 to 88
N#Cc1cccc(NCc2nc3ccc(F)cc3c(=O)n2-c2ccccc2Cl)c1	225 to 228
C=CCN1CCC23CC(=O)CCC2C1Cc1cccc(OC)c13 (stereo not drawn)	84 to 86
CCN(C(=O)C1CC1)c1cccc(-c2ccnc3c(C#N)cnn23)c1	166 to 168
